Reference: ChEMBL document CHEMBL1201862, “PubChem BioAssay data set” (2004)
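The compound was tested at five concentrations on cells cultured in 96-well plates, with a 48-hour exposure period. GI50 is the concentration that inhibits growth by half.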 Calls of active or inactive are those of the source. No stated cut-off is given here; in the data, active = GI50 up to about 1.1 µM and inactive = higher.

Columns and labels:
Assay in all cases: DTP human tumour cell line panel, 48 h
786-0 = system: 786-0
A498 = system: A498
A549 = system: A549
ACHN = system: ACHN
BT-549 = system: BT-549
CAKI-1 = system: CAKI-1
CCRF-CEM = system: CCRF-CEM
COLO 205 = system: COLO 205
DU-145 = system: DU-145
EKVX = system: EKVX
HCC 2998 = system: HCC 2998
HCT-116 = system: HCT-116
HCT-15 = system: HCT-15
HL-60 = system: HL-60
HOP-62 = system: HOP-62
HOP-92 = system: HOP-92
HT-29 = system: HT-29
Hs-578T = system: Hs-578T
IGROV-1 = system: IGROV-1
K562 = system: K562
KM12 = system: KM12
LOX IMVI = system: LOX IMVI
M14 = system: M14
MCF7 = system: MCF7
MDA-MB-231 = system: MDA-MB-231
MDA-MB-435 = system: MDA-MB-435
MDA-N = system: MDA-N
MOLT-4 = system: MOLT-4
Malme-3M = system: Malme-3M
NCI-H226 = system: NCI-H226
NCI-H23 = system: NCI-H23
NCI-H460 = system: NCI-H460
NCI-H522 = system: NCI-H522
OVCAR-3 = system: OVCAR-3
OVCAR-4 = system: OVCAR-4
OVCAR-5 = system: OVCAR-5
OVCAR-8 = system: OVCAR-8
PC-3 = system: PC-3
RPMI-8226 = system: RPMI-8226
SF-268 = system: SF-268
SF-295 = system: SF-295
SF-539 = system: SF-539
SK-MEL-28 = system: SK-MEL-28
SK-MEL-2 = system: SK-MEL-2
SK-MEL-5 = system: SK-MEL-5
SK-OV-3 = system: SK-OV-3
SN12C = system: SN12C
SNB-19 = system: SNB-19
SNB-75 = system: SNB-75
SR = system: SR
SW-620 = system: SW-620
T47D = system: T47D
TK-10 = system: TK-10
U-251 = system: U-251
UACC-257 = system: UACC-257
UACC-62 = system: UACC-62
NCI/ADR-RES = system: NCI/ADR-RES
UO-31 = system: UO-31

In the case of `O=C(c1ccccn1)c1nnn2ccccc12`, the GI50 (786-0) is reported as > 100 µM (inactive), the GI50 (A498) is reported as > 100 µM (inactive) and the GI50 (A549) is reported as > 100 µM (inactive). The GI50 (ACHN) was > 100 µM (inactive), the GI50 (BT-549) was > 100 µM (inactive) and the GI50 (CAKI-1) was > 100 µM (inactive). For the same compound, the GI50 (CCRF-CEM) was > 100 µM (inactive), the GI50 (COLO 205) was > 100 µM (inactive) and the GI50 (DU-145) was > 100 µM (inactive). The GI50 (EKVX) was > 100 µM (inactive), the GI50 (HCC 2998) was > 100 µM (inactive) and the GI50 (HCT-116) was > 100 µM (inactive). For the same compound, the GI50 (HCT-15) was greater than 100 µM, the GI50 (HL-60) was > 100 µM (inactive) and the GI50 (HOP-62) was > 100 µM (inactive). The GI50 (HOP-92) was > 100 µM (inactive), the GI50 (HT-29) was > 100 µM (inactive) and the GI50 (Hs-578T) was > 100 µM (inactive). For the same compound, the GI50 (IGROV-1) was > 100 µM (inactive), the GI50 (K562) was > 100 µM (inactive) and the GI50 (KM12) was > 100 µM (inactive). The GI50 (LOX IMVI) was > 100 µM (inactive), the GI50 (M14) was > 100 µM (inactive) and the GI50 (MCF7) was > 100 µM (inactive). For the same compound, the GI50 (MDA-MB-231) was > 100 µM (inactive), the GI50 (MDA-MB-435) was > 100 µM (inactive) and the GI50 (MDA-N) was > 100 µM (inactive). The GI50 (MOLT-4) was > 100 µM (inactive), the GI50 (Malme-3M) was > 100 µM (inactive) and the GI50 (NCI-H226) was > 100 µM (inactive). For the same compound, the GI50 (NCI-H23) was > 100 µM (inactive), the GI50 (NCI-H460) was > 100 µM (inactive) and the GI50 (NCI-H522) was > 100 µM (inactive). For the same compound, the GI50 (OVCAR-3) was > 100 µM (inactive), the GI50 (OVCAR-4) was > 100 µM (inactive) and the GI50 (OVCAR-5) was > 100 µM (inactive). The GI50 (OVCAR-8) was > 100 µM (inactive), the GI50 (PC-3) was > 100 µM (inactive) and the GI50 (RPMI-8226) was > 100 µM (inactive). For the same compound, the GI50 (SF-268) was > 100 µM (inactive), the GI50 (SF-295) was > 100 µM (inactive) and the GI50 (SF-539) was > 100 µM (inactive). The GI50 (SK-MEL-28) was > 100 µM (inactive), the GI50 (SK-MEL-2) was > 100 µM (inactive) and the GI50 (SK-MEL-5) was > 100 µM (inactive). The GI50 (SK-OV-3) was > 100 µM (inactive), the GI50 (SN12C) was > 100 µM (inactive) and the GI50 (SNB-19) was > 100 µM (inactive). For the same compound, the GI50 (SNB-75) was > 100 µM (inactive), the GI50 (SR) was > 100 µM (inactive) and the GI50 (SW-620) was > 100 µM (inactive). For the same compound, the GI50 (T47D) was > 100 µM (inactive), the GI50 (TK-10) was > 100 µM (inactive) and the GI50 (U-251) was > 100 µM (inactive). The GI50 (UACC-257) was > 100 µM (inactive) and the GI50 (UACC-62) was > 100 µM (inactive).
For `CCn1c(=O)c2c(=O)[nH][nH]c2c2ccccc21`, the GI50 (786-0) was > 100 µM (inactive), the GI50 (A498) was > 100 µM (inactive) and the GI50 (A549) was > 100 µM (inactive). For the same compound, the GI50 (ACHN) was > 100 µM (inactive), the GI50 (BT-549) was > 100 µM (inactive) and the GI50 (CCRF-CEM) was > 100 µM (inactive). The GI50 (COLO 205) was > 100 µM (inactive), the GI50 (DU-145) was > 100 µM (inactive) and the GI50 (EKVX) was > 100 µM (inactive). For the same compound, the GI50 (HCC 2998) was > 100 µM (inactive), the GI50 (HCT-116) was > 100 µM (inactive) and the GI50 (HCT-15) was greater than 100 µM. The GI50 (HL-60) was > 100 µM (inactive), the GI50 (HOP-62) was > 100 µM (inactive) and the GI50 (HOP-92) was > 100 µM (inactive). For the same compound, the GI50 (HT-29) was > 100 µM (inactive), the GI50 (Hs-578T) was > 100 µM (inactive) and the GI50 (IGROV-1) was > 100 µM (inactive). The GI50 (K562) was > 100 µM (inactive), the GI50 (KM12) was > 100 µM (inactive) and the GI50 (LOX IMVI) was > 100 µM (inactive). The GI50 (MCF7) was > 100 µM (inactive), the GI50 (MDA-MB-231) was > 100 µM (inactive) and the GI50 (MDA-MB-435) was > 100 µM (inactive). For the same compound, the GI50 (MDA-N) was > 100 µM (inactive), the GI50 (MOLT-4) was > 100 µM (inactive) and the GI50 (Malme-3M) was > 100 µM (inactive). For the same compound, the GI50 (NCI-H226) was > 100 µM (inactive), the GI50 (NCI-H23) was > 100 µM (inactive) and the GI50 (NCI-H460) was > 100 µM (inactive). The GI50 (NCI-H522) was > 100 µM (inactive), the GI50 (NCI/ADR-RES) was > 100 µM (inactive) and the GI50 (OVCAR-3) was > 100 µM (inactive). For the same compound, the GI50 (OVCAR-4) was > 100 µM (inactive), the GI50 (OVCAR-5) was > 100 µM (inactive) and the GI50 (OVCAR-8) was > 100 µM (inactive). The GI50 (PC-3) was > 100 µM (inactive), the GI50 (RPMI-8226) was > 100 µM (inactive) and the GI50 (SF-295) was > 100 µM (inactive). The GI50 (SF-539) was > 100 µM (inactive), the GI50 (SK-MEL-28) was > 100 µM (inactive) and the GI50 (SK-MEL-5) was > 100 µM (inactive). For the same compound, the GI50 (SN12C) was > 100 µM (inactive), the GI50 (SNB-19) was > 100 µM (inactive) and the GI50 (SNB-75) was > 100 µM (inactive). The GI50 (SR) was > 100 µM (inactive), the GI50 (SW-620) was > 100 µM (inactive) and the GI50 (TK-10) was > 100 µM (inactive). The GI50 (U-251) was > 100 µM (inactive), the GI50 (UACC-257) was > 100 µM (inactive) and the GI50 (UO-31) was > 100 µM (inactive).
